What was measured:
Assay type in all cases: in vivo, Heterodera schachtii
[1] = test system: sugar beet nematode (SBN); assay: Yield response field trials, CACTUS tolerant sugar beet seeds, seed treatment; settings: for White Sugar yield/ha: CACTUS tolerant sugar beet, average of nine field trials
Protocol: (§1) The yield response study illustrates the unexpected increase in yield achieved by using a nematode-antagonistic biocontrol agent with SBN resistant or tolerant varieties. Multiple field trials were conducted across Germany, Czech Republic and Denmark. The results of nine different trials are presented below utilizing seed treatments on sugar beet seeds to combat nematodes.
(§2) The tests presented below were run on both susceptible and SBN tolerant varieties of sugar beet seeds. In particular, the susceptible variety is known by the trade name INVICTA and the tolerant variety is known by the trade name CACTUS. Each trial, on both the susceptible and tolerant variety, was run with a Control check that included no nematicide, a treatment on the seed with Pasteuria nishizawae at about 1×10^6 spores/seed, a treatment on the seed with Pasteuria nishizawae at about 1×10^7 spores/seed, and a treatment on the seed that included a commercial soil applied standard nematicide.
(§3) The results of trails are presented below where yield data has been averaged.
CACTUS Tolerant Sugar Beet Seeds

[2] = test system: sugar beet nematode (SBN); assay: Root and sugar yield field trials, susceptible sugar beet seeds, seed treatment
Protocol: (§4) The root and sugar yield response study illustrates the unexpected increase in root and sugar yield achieved by using a nematode-antagonistic biocontrol agent with SBN resistant or tolerant varieties. Multiple field trials were conducted across Nebraska, Colorado, and Idaho. The results of four different trials are presented below utilizing seed treatments on sugar beet seeds to combat nematodes.
(§5) The tests presented below were run on both susceptible and SBN tolerant varieties of sugar beet seeds. Each trial, on both the susceptible and tolerant variety, was run with a Control check that included no nematicide, a treatment on the seed with Pasteuria nishizawae at about 5×10^6 spores/seed, a treatment on the seed with Pasteuria nishizawae at about 1×10^7 spores/seed, a treatment on the seed with Pasteuria nishizawae at about 2×10^7 spores/seed and a treatment on the seed with Pasteuria nishizawae at about 4×10^7 spores/seed.
as §3
Susceptible Sugar Beet Seeds

[3] = test system: sugar beet nematode (SBN); assay: Root and sugar yield field trials, tolerant sugar beet seeds, seed treatment; settings: average of four field trials
Protocol: as §4, §5, §3
Tolerant Sugar Beet Seeds

[4] = test system: sugar beet nematode (SBN); assay: Yield response field trials, INVICTA susceptible sugar beet seeds, seed treatment
Protocol: as §1, §2, §3
INVICTA Susceptible Sugar Beet Seeds

[5] = 1 × 10^7 spores/seed, average of four field trials
[6] = 2 × 10^7 spores/seed, average of four field trials
[7] = 4 × 10^7 spores/seed, average of four field trials

Pasteuria nishizawae
White Sugar yield/ha ([1]; seed treatment 1 × 10^6 spores/seed): 12.65 /ha
White Sugar yield/ha ([1]; seed treatment 1 × 10^7 spores/seed): 12.93 /ha
yield compared with commercial standards ([1]; tolerant varieties treated with Pasteuria, statement in words): showed an increase over commercial standards
Root Yield [2, 5]: 19.9 Ton/Acre
White Sugar [2, 5]: 2.5 Ton/Acre
Root Yield [2, 6]: 19.8 Ton/Acre
White Sugar [2, 6]: 2.3 Ton/Acre
Root Yield [2, 7]: 19.5 Ton/Acre
White Sugar [2, 7]: 2.4 Ton/Acre
Root Yield ([2]; 5 × 10^6 spores/seed, average of four field trials): 17.4 Ton/Acre
White Sugar ([2]; 5 × 10^6 spores/seed, average of four field trials (Nebraska, Colorado, Idaho)): 2.0 Ton/Acre
Root Yield ([3]; 1 × 10^7 spores/seed): 27.2 Ton/Acre
White Sugar ([3]; 1 × 10^7 spores/seed): 3.5 Ton/Acre
Root Yield ([3]; 2 × 10^7 spores/seed): 27.2 Ton/Acre
White Sugar ([3]; 2 × 10^7 spores/seed): 3.7 Ton/Acre
Root Yield ([3]; 4 × 10^7 spores/seed): 26.7 Ton/Acre
White Sugar ([3]; 4 × 10^7 spores/seed): 3.5 Ton/Acre
Root Yield ([3]; 5 × 10^6 spores/seed): 26.1 Ton/Acre
White Sugar ([3]; 5 × 10^6 spores/seed): 3.6 Ton/Acre
White Sugar yield/ha ([4]; seed treatment 1 × 10^6 spores/seed, average of nine field trials (Germany, Czech Republic, Denmark)): 11.09 /ha
White Sugar yield/ha ([4]; seed treatment 1 × 10^7 spores/seed, average of nine field trials): 11.20 /ha

From patent US10869481B2, “Method for controlling nematode pests” (Syngenta Participations AG, priority 2014, dated 2020)
